Laboratory results taken from US9518038B2, “Condensation product of theanine derivative and carboxylic acid coumarin derivative, its intermediate, preparation method and use thereof” (SHANDONG YINGDONG YINGHAO BIOTECHNOLOGY, INC., priority 2012, dated 2016).
Read-outs that look alike come from different tables or passages of the source.

Legend:
[1] = test system: highly metastatic Lewis lung cancer cell lines; test: MTT growth inhibition, LLC cells; type: cell-based, mouse; conditions: 72 h after treatment, read-out: Drug concentration (IC50) at which 50% cancer cells survived
From the text: (§1) Cell lines and cell culture: human lung cancer cells A549 and H460, human breast cancer cells MCF-7 and MDA-MB-231, human gastric cancer cells BGC-823, human prostate cancer cells PC-3, human chronic leukemia cells K562, human lymphoma cells U937, human liver cancer cells SMMC7721 and HepG2, human colon cancer cells HT29, human pancreatic cancer cells PANC-1 and BxPC3, human cervical cancer Hela cell lines, human brain tumor cells Daoy, human neuroma cells D54 and human oral epidermoid cancer cells KBV200 line with strong drug resistance, mouse melanoma cells B16, and highly metastatic Lewis lung cancer cell lines were purchased from American Type Culture Collection of the U.S. These cells were cultured with DMEM and RPMI-1640 culture solutions separately.
(§2) The procedure was as follows:
(§3) (1) 0.25% trypsin was used to digest cancer cells in a logarithmic growth phase to prepare a single-cell suspension, the concentration of cells was adjusted to 5×10^4/mL, and the adjusted suspension was inoculated into a 96-well culture plate with 100 μl per well;
(§4) (2) The culture plate was transferred into a 37° C. incubator with a saturated humidity and 5% of CO2 and cultured for 24 h; the compounds and the intermediates thereof obtained in embodiments 1-7 and the compound as represented by formula (IIIa) or the positive control anti-cancer drug with the concentration of 1-1000 μM/L were added to enable the final concentration to be 0.1-1500 μM/L. Control wells (only added with 200 μl of cell suspension) and drug-free blank control wells (containing the solvent of 0.01% DMSO) were set, each group included 8 wells, and the plate was placed into the 37° C. incubator with saturated humidity and 5% of CO2 for culturing;
(§5) (3) The 96-well plate was taken out at 48 h and 72 h after dosing, the original culture medium was carefully removed by suction, 100 μl of serum-free DMEM culture medium and 10 μl of MTT (5 mg/mL) solution were added in each well. The plate was continuously cultured for another 4 h and then the culture was terminated;
(§6) (4) The supernatant in the wells was carefully removed by suction, each well was added with 150 μl of DMSO and shaked at room temperature for 10-15 min to fully dissolve crystals.
(§7) (5) Colorimetric analysis: the wavelength was selected as 570 nm, the light absorbance (A value) of each well was determined on the microplate reader and the results were recorded; the experiment was repeated for three times;
(§8) (6) the experimental results were calculated according to the following formula: relative survival rate=(A value of each experimental group/A value of cell control group)×100%
(§9) Calculation of median-effect concentration (IC50, namely the drug concentration at which the inhibition rate is 50%, also known as half inhibitory concentration):
(§10) IC50 of the detected component was calculated by using a regression equation.

[2] = test system: human pancreatic cancer cells BxPC3; test: MTT growth inhibition, BxPc3 cells; type: cell-based; conditions: read-out: Drug concentration (IC50) at which 50% cancer cells survived
From the text: as §1, §2, §3, §4, §5, §6, §7, §8, §9, §10

[3] = test system: human lung cancer cells A549; test: MTT growth inhibition, A549 cells; type: cell-based; conditions: 72 h after treatment, read-out: Drug concentration (IC50) at which 50% cancer cells survived
From the text: as §1, §2, §3, §4, §5, §6, §7, §8, §9, §10

[4] = test system: human lung cancer cells H460; test: MTT growth inhibition, H460 cells; type: cell-based; conditions: NCI-H460, 72 h after treatment, read-out: Drug concentration (IC50) at which 50% cancer cells survived
From the text: as §1, §2, §3, §4, §5, §6, §7, §8, §9, §10

[5] = test system: human breast cancer cells MCF-7; test: MTT growth inhibition, MCF-7 cells; type: cell-based; conditions: MCF7, 72 h after treatment, read-out: Drug concentration (IC50) at which 50% cancer cells survived
From the text: as §1, §2, §3, §4, §5, §6, §7, §8, §9, §10

[6] = test system: human breast cancer cells MDA-MB-231; test: MTT growth inhibition, MDA-MB-231 cells; type: cell-based; conditions: 72 h after treatment, read-out: Drug concentration (IC50) at which 50% cancer cells survived
From the text: as §1, §2, §3, §4, §5, §6, §7, §8, §9, §10

[7] = test system: human gastric cancer cells BGC-823; test: MTT growth inhibition, BGC-823 cells; type: cell-based; conditions: 72 h after treatment, read-out: Drug concentration (IC50) at which 50% cancer cells survived
From the text: as §1, §2, §3, §4, §5, §6, §7, §8, §9, §10

[8] = test system: human prostate cancer cells PC-3; test: MTT growth inhibition, PC-3 cells; type: cell-based; conditions: 72 h after treatment, read-out: Drug concentration (IC50) at which 50% cancer cells survived
From the text: as §1, §2, §3, §4, §5, §6, §7, §8, §9, §10

[9] = test system: human lymphoma cells U937; test: MTT growth inhibition, U937 cells; type: cell-based; conditions: Homo sapiens, U-937, 72 h after treatment, read-out: Drug concentration (IC50) at which 50% cancer cells survived
Method: as §2, §5, §6, §7, §8, §10

[10] = test system: human pancreatic cancer cells PANC-1; test: MTT growth inhibition, PANC-1 cells; type: cell-based; conditions: 72 h after treatment, read-out: Drug concentration (IC50) at which 50% cancer cells survived
From the text: as §1, §2, §3, §4, §5, §6, §7, §8, §9, §10

[11] = test system: human cervical cancer Hela cell lines; test: MTT growth inhibition, Hela cells; type: cell-based; conditions: Homo sapiens, 72 h after treatment, read-out: Drug concentration (IC50) at which 50% cancer cells survived
From the text: as §1, §2, §3, §4, §5, §6, §7, §8, §9, §10

[12] = test system: human liver cancer cells SMMC7721; test: MTT growth inhibition, SMMC7721 cells; type: cell-based; conditions: SMMC-7721, S-7721 (SMMC7721), 72 h after treatment, read-out: Drug concentration (IC50) at which 50% cancer cells survived
From the text: as §1, §2, §3, §4, §5, §6, §7, §8, §9, §10

[13] = test system: human colon cancer cells HT29; test: MTT growth inhibition, HT29 cells; type: cell-based; conditions: HT-29, 72 h after treatment, read-out: Drug concentration (IC50) at which 50% cancer cells survived
From the text: as §1, §2, §3, §4, §5, §6, §7, §8, §9, §10

mouse melanoma cells B16 = test: MTT growth inhibition, B16 cells; type: cell-based; conditions: Mus musculus, 72 h after treatment, read-out: Drug concentration (IC50) at which 50% cancer cells survived
From the text: as §1, §2, §3, §4, §5, §6, §7, §8, §9, §10

[14] = test system: human chronic leukemia cells K562; test: MTT growth inhibition, K562 cells; type: cell-based; conditions: 72 h after treatment, read-out: Drug concentration (IC50) at which 50% cancer cells survived
From the text: as §1, §2, §3, §4, §5, §6, §7, §8, §9, §10

[15] = test system: human liver cancer cells HepG2; test: MTT growth inhibition, HepG2 cells; type: cell-based; conditions: 72 h after treatment, read-out: Drug concentration (IC50) at which 50% cancer cells survived
From the text: as §1, §2, §3, §4, §5, §6, §7, §8, §9, §10

[16] = test system: Caski human cervical cancer cells; test: MTT growth inhibition, Caski cells; type: cell-based; conditions: Ca-Ski, 72 h after treatment, read-out: Drug concentration (IC50) at which 50% cancer cells survived
[17] = test system: human brain tumor cells Daoy; test: MTT growth inhibition, Daoy cells; type: cell-based; conditions: Homo sapiens, 72 h after treatment, read-out: Drug concentration (IC50) at which 50% cancer cells survived
From the text: as §1, §2, §3, §4, §5, §6, §7, §8, §9, §10

human neuroma cells D54 = test: MTT growth inhibition, D54 cells; type: cell-based; conditions: Homo sapiens, 72 h after treatment, read-out: Drug concentration (IC50) at which 50% cancer cells survived
From the text: as §1, §2, §3, §4, §5, §6, §7, §8, §9, §10

[18] = test system: human oral epidermoid cancer cells KBV200; test: MTT growth inhibition, KBV200 cells; type: cell-based; conditions: 72 h after treatment, read-out: Drug concentration (IC50) at which 50% cancer cells survived
From the text: as §1, §2, §3, §4, §5, §6, §7, §8, §9, §10

[19] = Mus musculus, Lewis lung carcinoma
[20] = Homo sapiens, BXPC-3, 72 h after treatment

Compound: O=C1OC(=O)[C@H]2[C@@H]1[C@@H]1CC[C@H]2O1 [Norcantharidin, reference compound]
- IC50 [1]: 15 µM
- IC50 ([2]; 72 h after treatment): 60 µM

Compound: O=C(O)c1cc2cc(Cl)cc(Cl)c2oc1=O [Compound IIIg, 6,8-dichloro-coumarin-3-carboxylic acid]
- IC50 [3]: 330 µM
- IC50 [4]: 400 µM
- IC50 [5]: 410 µM
- IC50 [6]: 460 µM
- IC50 [7]: 380 µM
- IC50 [8]: 310 µM
- IC50 [9]: 350 µM
- IC50 [10]: 430 µM
- IC50 [11]: 260 µM
- IC50 [12]: 490 µM
- IC50 [13]: 480 µM
- IC50 (mouse melanoma cells B16): 500 µM
- IC50 [14]: 420 µM
- IC50 [1, 19]: 250 µM
- IC50 [2, 20]: 300 µM
- IC50 [15]: 420 µM
- IC50 [16]: 250 µM
- IC50 [17]: 350 µM
- IC50 (human neuroma cells D54): 300 µM
- IC50 [18]: 300 µM

Compound: O=C(O)c1cc2cc(F)ccc2oc1=O [Compound IIIe, 6-fluorocoumarin-3-carboxylic acid]
- IC50 [3]: 450 µM
- IC50 [4]: 450 µM
- IC50 [5]: 390 µM
- IC50 [6]: 520 µM
- IC50 [7]: 700 µM
- IC50 [8]: 520 µM
- IC50 [9]: 560 µM
- IC50 [10]: 480 µM
- IC50 [11]: 600 µM
- IC50 [12]: 490 µM
- IC50 [13]: 570 µM
- IC50 (mouse melanoma cells B16): 600 µM
- IC50 [14]: 300 µM
- IC50 [1, 19]: 380 µM
- IC50 [2, 20]: 500 µM
- IC50 [15]: 400 µM
- IC50 [16]: 380 µM
- IC50 [17]: 500 µM
- IC50 (human neuroma cells D54): 300 µM
- IC50 [18]: 300 µM

Compound: O=C(O)c1cc2ccccc2oc1=O [Compound IIIa]
- IC50 [3]: > 700 µM
- IC50 [4]: > 700 µM
- IC50 [5]: > 700 µM
- IC50 [6]: > 700 µM
- IC50 [7]: > 700 µM
- IC50 [8]: > 500 µM
- IC50 [9]: > 700 µM
- IC50 [10]: > 700 µM
- IC50 [11]: > 700 µM
- IC50 [12]: > 500 µM
- IC50 [13]: > 700 µM
- IC50 (mouse melanoma cells B16): > 700 µM
- IC50 [14]: > 700 µM
- IC50 [1, 19]: > 700 µM
- IC50 [2, 20]: > 700 µM
- IC50 [15]: > 700 µM
- IC50 [16]: > 700 µM
- IC50 [17]: > 700 µM
- IC50 (human neuroma cells D54): > 700 µM
- IC50 [18]: > 700 µM

Compound: COc1cc([C@@H]2c3cc4c(cc3[C@@H](O[C@@H]3O[C@@H]5CO[C@@H](C)O[C@H]5[C@H](O)[C@H]3O)[C@H]3COC(=O)[C@H]23)OCO4)cc(OC)c1O [Etoposide, reference compound]
- IC50 [14]: 85 µM
- IC50 [16]: 89 µM

Compound: O=C(O)c1cc2cc(Cl)ccc2oc1=O [Compound IIIc, 6-chlorocoumarin-3-carboxylic acid]
- IC50 [3]: 600 ± 30 µM
- IC50 [4]: 350 ± 50 µM
- IC50 [5]: 300 µM
- IC50 [6]: 500 µM
- IC50 [7]: 300 µM
- IC50 [8]: 500 µM
- IC50 [9]: 500 µM
- IC50 [10]: 500 µM
- IC50 [11]: 600 µM
- IC50 [12]: 500 µM
- IC50 [13]: 700 µM
- IC50 (mouse melanoma cells B16): 600 µM
- IC50 [14]: 600 µM
- IC50 [1, 19]: 400 µM
- IC50 [2, 20]: 500 µM
- IC50 [15]: 300 µM
- IC50 [16]: 400 µM
- IC50 [17]: 400 µM
- IC50 (human neuroma cells D54): 300 µM
- IC50 [18]: 400 µM
